These results are taken from US6384080B1, “Anthranilic acid derivatives as inhibitors of the cGMP-phosphodiesterase” (Fujisawa Pharmaceutical Co., Ltd., priority 1998, dated 2002).

As a reminder, the melting point is the temperature of the solid-liquid transition. Usually pIC50 stands for the negative decadic logarithm of the IC50, by convention in mol/L.

pIC50: −log10 of the molar value. Some results are limits rather than exact numbers.

Test system in one series: not given
Test: not given
Conditions: not given
As to `COc1ccc(CNC(=O)c2cc([N+](=O)[O-])ccc2N[C@@H]2CCC[C@H]2O)cc1OC` (relative stereo) [Example 67, N-(3,4-Dimethoxybenzyl)-2-(trans-2-hydroxycyclopentylamino)-5-nitrobenzamide], the melting point was in the range of 154 to 155 °C.
Turning to `CC[C@@H](CO)Nc1ccc([N+](=O)[O-])cc1C(=O)NCc1ccc2c(c1)OCO2` [2(1), (S)-2-[1-(Hydroxymethyl)propylamino]-5-nitro-N-(1,3-benzodioxol-5-ylmethyl)benzamide], the melting point fell in the range of 128 to 130 °C.
In turn, `O=C(NCc1ccc(-c2ccccc2)cc1)c1cc([N+](=O)[O-])ccc1N[C@H]1CC[C@@H](O)CC1` [2-(cis-4-Hydroxycyclohexylamino)-5-nitro-N-(4-phenylbenzyl)benzamide] showed a melting point of 168 to 170 °C.
Still for that read-out and setting: the result for `CCCCC(CO)Nc1ccc([N+](=O)[O-])cc1C(=O)NCc1ccc2c(c1)OCO2` (centres unmarked) [2-[1-(1-Hydroxymethyl)pentylamino]-5-nitro-N-(1,3-benzodioxol-5-ylmethyl)benzamide] reads 112 to 115 °C; that for `COc1ccc(CNC(=O)c2cc([N+](=O)[O-])ccc2N[C@H]2CC[C@@H](OC(C)=O)CC2)cc1OC` [2-[cis-4-(acetoxy)cyclohexylamino]-N-(3,4-dimethoxybenzyl)-5-nitrobenzamide], 147 to 148 °C; that for `COc1ccc(CNC(=O)c2cc(C#N)ccc2N[C@@H](C)CO)cc1OC` [88(1), (S)-5-Cyano-N-(3,4-dimethoxybenzyl)-2-(2-hydroxy-1-methylethylamino)benzamide], 142 to 143.5 °C.
For the compound `COc1ccc(CNC(=O)c2cc(S(=O)(=O)N3CCN(C(=O)OC(C)(C)C)CC3)ccc2N[C@H]2CC[C@H](O)CC2)cc1OC` [153(1), 5-[4-(tert-Butoxycarbonyl)piperazin-1-ylsulfonyl]-N-(3,4-dimethoxybenzyl)-2-(trans-4-hydroxycyclohexylamino)benzamide], the melting point lay within 221 to 222 °C.
The same measure, in the same setting: the result for `COc1ccc(CNC(=O)c2cc(S(=O)(=O)N3CCNCC3)ccc2N[C@H]2CC[C@H](O)CC2)cc1OC` [153(2), N-(3,4-Dimethoxybenzyl)-2-(trans-4-hydroxycyclohexylamino)-5-(piperazinosulfonyl)benzamide] reads 108 to 110 °C; that for `COc1ccc(CNC(=O)c2cc([N+](=O)[O-])ccc2NC2CC=CCC2)cc1F` (centres unmarked) [153(3), 2-(3-cyclohexenylamino)-N-(3-fluoro-4-methoxybenzyl)-5-nitrobenzamide], 140 °C; that for `O=C(NCc1ccc2c(c1)OCO2)c1cc([N+](=O)[O-])ccc1N[C@H]1CC[C@H](O)CC1` [Example 1(1), 2-(trans-4-hydroxycyclohexylamino)-5-nitro-N-(1,3-benzodioxol-5-ylmethyl)benzamide], 205 to 206 °C.
The compound `C[C@H](CO)Nc1ccc([N+](=O)[O-])cc1C(=O)NCc1ccc2c(c1)OCO2` [Example 7, (R)-2-(2-Hydroxy-1-methylethylamino)-5-nitro-N-(1,3-benzodioxol-5-ylmethyl)benzamide] displayed a melting point of 166 to 168 °C.
Still for that read-out and setting: the result for `O=C(NCc1ccccc1)c1cc([N+](=O)[O-])ccc1N[C@H]1CC[C@H](O)CC1` [Example 51, N-benzyl-2-(trans-4-hydroxycyclohexylamino)-5-nitrobenzamide] reads 233 to 234 °C; that for `O=C(NCc1ccccc1)c1cc([N+](=O)[O-])ccc1NC(CO)CO` [Example 55, N-Benzyl-2-[2-hydroxy-1-(hydroxymethyl)ethylamino]-5-nitrobenzamide], 171 to 173 °C; that for `CC[C@@H](CO)Nc1ccc([N+](=O)[O-])cc1C(=O)NCc1ccc(OC)c(OC)c1` [Example 65, (S)-N-(3,4-Dimethoxybenzyl)-2-[1-(hydroxymethyl)-propylamino]-5-nitrobenzamide], 168 to 169 °C.
On to `COc1ccc(CNC(=O)c2cc([N+](=O)[O-])ccc2NC(C)(C)CO)cc1OC` [Example 66, N-(3,4-Dimethoxybenzyl)-2-(2-hydroxy-1,1-dimethyl-ethylamino)-5-nitrobenzamide], for which the melting point fell in the range of 161 to 162 °C.
Regarding `COc1ccc(CNC(=O)c2cc([N+](=O)[O-])ccc2N[C@@H](C)CO)cc1OC` [Example 68, (S)-N-(3,4-Dimethoxybenzyl)-2-(2-hydroxy-1-methyl-ethylamino)-5-nitrobenzamide], the melting point was in the range of 131 to 132 °C.
The compound `COc1ccc(CNC(=O)c2cc([N+](=O)[O-])ccc2NNCC(F)(F)F)cc1OC` [Example 69, N-(3,4-Dimethoxybenzyl)-5-nitro-2-[2-(2,2,2-trifluoroethyl)hydrazino]benzamide] displayed a melting point of 140 to 142 °C.
`COc1ccc(CNC(=O)c2cc([N+](=O)[O-])ccc2Nc2ccc3[nH]cnc3c2)cc1OC` [Example 80, 2-(1H-Benzimidazol-5-ylamino)-N-(3,4-dimethoxybenzyl)-5-nitrobenzamide] displayed a melting point of 226.5 to 227 °C.
`COc1ccc(CNC(=O)c2cc(-c3ncc[nH]3)ccc2N[C@H]2CC[C@H](O)CC2)cc1OC` [Example 90, N-(3,4-Dimethoxybenzyl)-2-(trans-4-hydroxycyclohexylamino)-5-(1H-imidazol-2-yl)benzamide]: the melting point was 189 to 190 °C.
On the same count and under the same terms, the result for `COc1cc(CNC(=O)c2cc([N+](=O)[O-])ccc2NC(CO)CO)ccc1Cl` [Example 91, N-(4-Chloro-3-methoxybenzyl)-2-[2-hydroxy-1-(hydroxymethyl)ethylamino]-5-nitrobenzamide] reads 176 to 177 °C.
In the case of `COc1cc(CNC(=O)c2cc(S(C)(=O)=O)ccc2N[C@H]2CC[C@H](O)CC2)ccc1Cl` [Example 102, N-(4-Chloro-3-methoxybenzyl)-2-(trans-4-hydroxycyclohexylamino)-5-methanesulfonylbenzamide], the melting point fell in the range of 234 to 235.5 °C.
The same measure, in the same setting: the result for `COc1cc(CNC(=O)c2cc([N+](=O)[O-])ccc2N[C@@H](C)CO)cc(OC)c1` [Example 107, (S)-N-(3,5-Dimethoxybenzyl)-2-(2-hydroxy-1-methylethyl)amino-5-nitrobenzamide] reads 98 to 101 °C.

The target of a further series is T1, human platelet PDE-V (Homo sapiens, UniProt O76074).
T1 construct: Human platelet cGMP-PDE was separated from other isozymes in human platelets; from tissue; host or cells: human platelets
The experiment in a line: cGMP-Phosphodiesterase (PDE) assay, enzymatic inhibitory test. It is filed as biochemical. The following applies: human platelet PDE-V; 0.1 μM [3H]-cGMP substrate, 30° C., 10 minutes; read-out: Inhibitory activity IC50. How it is done: cGMP-Phosphodiesterase (PDE) Assay
Human platelet cGMP-PDE was separated from other isozymes in human platelets by a modification of the method of Thompson et. al. (see Cyclic Nucleotide Phosphodiesterase (PDE), in Methods of Enzymatic analysis, Vol 4, p127-234, 1984). In enzyme inhibition assays, the test compounds were dissolved in DMSO and then diluted with assay buffer (50 mM Tris-HCl, 0.077 mg/ml dithiothreitol and 10 mg/ml snake venom, 1 mM EGTA, pH 8.0), at final concentrations ranging from 10^−10 to 10^−6 M. Assays were performed at 0.1 μM substrate ([^3H]-cGMP) concentration, at 30° C. for 10 minutes using enzyme dilutions which gave 10-20% hydrolysis of substrate. Each assay was initiated by addition of substrate and terminated by addition of anion exchange resin (Dowex® 1-X8, 250 mg/mg) followed by centrifugation for 10 minutes (3000 rpm, at 4° C.). Radioactivity of supernatant (^3H-GMP) was assayed by liquid scintillation counting.
For the compound `O=C(NCc1ccc(-c2ccccc2)cc1)c1cc([N+](=O)[O-])ccc1N[C@H]1CC[C@@H](O)CC1` [2-(cis-4-Hydroxycyclohexylamino)-5-nitro-N-(4-phenylbenzyl)benzamide], the pIC50 was above 8.00.
Same read-out and setting: the result for `CCCCC(CO)Nc1ccc([N+](=O)[O-])cc1C(=O)NCc1ccc2c(c1)OCO2` (centres unmarked) [2-[1-(1-Hydroxymethyl)pentylamino]-5-nitro-N-(1,3-benzodioxol-5-ylmethyl)benzamide] reads above 8.00; that for `COc1ccc(CNC(=O)c2cc([N+](=O)[O-])ccc2N[C@H]2CC[C@@H](OC(C)=O)CC2)cc1OC` [2-[cis-4-(acetoxy)cyclohexylamino]-N-(3,4-dimethoxybenzyl)-5-nitrobenzamide], above 8.00; that for `O=C(NCc1ccc(Cl)cc1)c1cc([N+](=O)[O-])ccc1NC1CCCC1` [N-(4-Chlorobenzyl)-2-(cyclopentylamino)-5-nitrobenzamide], above 8.00.
On the same count and under the same terms, the result for `COc1cc(CNC(=O)c2cc([N+](=O)[O-])ccc2NC(CO)CO)ccc1OCC1CCC1` [N-(4-Cyclobutylmethoxy-3-methoxybenzyl)-2-[2-hydroxy-1-(hydroxymethyl)ethylamino]-5-nitrobenzamide] reads above 8.00.
In the case of `CCOc1ccc(CNC(=O)c2cc([N+](=O)[O-])ccc2N[C@H]2CC[C@@H](O)CC2)cc1OC` [N-(4-Ethoxy-3-methoxybenzyl)-2-(cis-4-hydroxycyclohexylamino)-5-nitrobenzamide], the pIC50 was above 8.00.
Take `CCOc1ccc(CNC(=O)c2cc([N+](=O)[O-])ccc2N[C@H]2CC[C@H](NC=O)CC2)cc1OC` [N-(4-Ethoxy-3-methoxybenzyl)-2-(trans-4-formamidocyclohexylamino)-5-nitrobenzamide]: the pIC50 was above 8.00.
With `Nc1ccc(CNC(=O)c2cc([N+](=O)[O-])ccc2NC2CCCC2)c(Cl)c1` [N-(4-amino-2-chlorobenzyl)-2-(cyclopentylamino)-5-nitrobenzamide], the pIC50 was above 8.00.
On the same count and under the same terms, the result for `O=C(NCc1cc2ccccc2s1)c1cc([N+](=O)[O-])ccc1N[C@H]1CC[C@@H](O)CC1` [N-(Benzo[b]thiophen-2-ylmethyl)-2-(cis-4-hydroxycyclohexylamino)-5-nitrobenzamide] reads above 8.00.
For `O=C(NCc1cc2ccccc2o1)c1cc([N+](=O)[O-])ccc1N[C@H]1CC[C@@H](O)CC1` [N-(Benzofuran-2-ylmethyl)-2-(cis-4-hydroxycyclohexylamino)-5-nitrobenzamide], the pIC50 was above 8.00.
For `O=C(NCc1ccccc1)c1cc([N+](=O)[O-])ccc1NC1CCC(O)C1` (centres unmarked) [N-Benzyl-2-(3-hydroxycyclopentylamino)-5-nitrobenzamide], the pIC50 was above 8.00.
On the same count and under the same terms, for `O=C(NCc1ccccc1)c1cc([N+](=O)[O-])ccc1NC1CCC1` [N-Benzyl-2-(cyclobutylamino)-5-nitrobenzamide] the value was above 8.00; for `O=C(NCc1ccccc1)c1cc([N+](=O)[O-])ccc1NC1CCCCC1` [N-Benzyl-2-(cyclohexylamino)-5-nitrobenzamide], above 8.00; for `O=C(NCc1ccccc1)c1cc([N+](=O)[O-])ccc1NC1CC1` [N-Benzyl-2-(cyclopropylamino)-5-nitrobenzamide], above 8.00.
The same measure, in the same setting: for `O=C(NCc1nc2ccccc2[nH]1)c1cc([N+](=O)[O-])ccc1NC1CCCC1` [N-[(2-Benzimidazolyl)methyl]-2-(cyclopentylamino)-5-nitrobenzamide] the value was above 8.00.
With `O=C(NCC1CCCCC1)c1cc([N+](=O)[O-])ccc1N[C@H]1CC[C@@H](O)CC1` [N-cyclohexylmethyl-2-(cis-4-hydroxycyclohexylamino)-5-nitrobenzamide], the pIC50 was above 8.00.
